Assay results published in PMC8041284, “Tunable Methacrylamides for Covalent Ligand Directed Release Chemistry” (Journal of the American Chemical Society, 2021).
Like-named read-outs stand apart in the source and are kept apart here.

Biological target: BTK (Homo sapiens, UniProt Q06187)
Assay: biochemical
[1] = read-out: BTK inhibition (%), 0.75 uM BTK, […] probe 3l, 15 min preincubation

Chain of BTK (Q06187 402-655 limits assumed): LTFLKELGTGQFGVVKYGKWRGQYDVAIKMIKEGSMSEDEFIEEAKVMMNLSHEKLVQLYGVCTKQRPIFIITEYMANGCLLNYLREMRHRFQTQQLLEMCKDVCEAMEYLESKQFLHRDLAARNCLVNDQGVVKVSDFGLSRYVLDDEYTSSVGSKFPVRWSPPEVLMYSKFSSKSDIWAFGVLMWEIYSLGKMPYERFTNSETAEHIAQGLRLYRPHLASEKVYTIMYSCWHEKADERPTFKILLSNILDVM

| SMILES | inhibition at 10 µM [1] [%] | inhibition at 10 µM (read-out: BTK inhibition (%)) [%] |
| --- | --- | --- |
| CN(C)CCN1C(=O)c2cccc3cc(N)cc(c23)C1=O [PCM-0095001] | 0.8 |  |
| COc1cc2c(cc1OC)C1Cc3ccc(OC)c(OC)c3CN1CC2 (stereo not drawn) [PCM-0088127] | -14 |  |
| CO[C@H]1C[C@H](O[C@H]2[C@H](C)O[C@@H](O[C@@H]3/C(C)=C/C[C@@H]4C[C@@H](C[C@]5(C=C[C@H](C)[C@@H](C6CCCCC6)O5)O4)OC(=O)[C@@H]4C=C(C)[C@@H](O)[C@H]5OC/C(=C\C=C\[C@@H]3C)[C@]54O)C[C@@H]2OC)O[C@@H](C)[C@@H]1O [PCM-0215971] | 44 |  |
| CC(C)(C)OC(=O)N[C@H]1CCCCC/C=C\[C@@H]2C[C@@]2(C(=O)NS(=O)(=O)C2CC2)NC(=O)[C@@H]2C[C@@H](OC(=O)N3Cc4cccc(F)c4C3)CN2C1=O [PCM-0214602] | -12.5 |  |
| CN(CC(=O)N(Cc1ccc(C2CCCCC2)cc1)c1ccc(C(=O)NO)cc1)S(=O)(=O)c1c(F)c(F)c(F)c(F)c1F [PCM-0215779] | 19.3 |  |
| CC(C)=CCC[C@@](C)(O)[C@H]1CC[C@]2(C)[C@@H]1[C@H](O)C[C@@H]1[C@@]3(C)CC[C@H](O)C(C)(C)[C@@H]3[C@@H](O[C@@H]3O[C@H](CO)[C@@H](O)[C@H](O)[C@H]3O)C[C@]12C [PCM-0216547] | 12.4 |  |
| CCCCOc1ccc(C(=O)CCN2CCCCC2)cc1 [PCM-0085815] | -10.1 |  |
| CCCCCCCC/C=C\CCCCCCCC(=O)OCC [PCM-0216145] | 6.9 |  |
| Cn1c(=O)c(Oc2ccc(F)cc2F)cc2cnc(NC(CCO)CCO)nc21 [PCM-0215718] | -30.3 |  |
| O[C@@H]1[C@H](O)[C@@H](O)CO[C@H]1O [PCM-0215084] | 0.8 |  |
| O=C(O)CC[C@@H](O)C(=O)O [PCM-0215516] | -13.6 |  |
| CS(=O)(=O)c1cccc(CNc2nc(Nc3ccc4c(c3)CCC(=O)N4)ncc2C(F)(F)F)c1 [PCM-0064954] | 55.2 |  |
| O=c1cc(N2CCOCC2)oc2c(-c3cccc4c3sc3ccccc34)cccc12 [PCM-0095522] | -13.6 |  |
| Cc1nc2cc(F)c(F)cc2n1-c1cncc(Nc2ccc(C(F)(F)F)cc2)n1 [PCM-0215953] | -6.2 |  |
| CCCCCCCCCCCCCC(=O)OCC(COC(=O)CCCCCCCCCCCCC)OC(=O)CCCCCCCCCCCCC [PCM-0216465] | -18.7 |  |
| CC(C)(C)c1ccc(S(=O)(=O)NCc2ccc(C(=O)Nc3cccnc3)cc2)cc1 [PCM-0215545] | -2.3 |  |
| CO/N=C(\C(=O)N[C@@H]1C(=O)N2C(C(=O)O)=C(C[N+]3(C)CCCC3)CS[C@H]12)c1csc(N)n1 [PCM-0214905] | -10.1 |  |
| Oc1cc(O)c2c(c1)OC(c1ccc(O)c(O)c1)C(OC1(c3ccc(O)c(O)c3)Oc3cc(O)cc(O)c3C(O)C1O)C2 (stereo not drawn) [PCM-0215931] | 85.7 |  |
| C/C(=N\NC(=O)c1cccc(S(=O)(=O)N2CCOCC2)c1)c1cc(Cl)ccc1O [PCM-0215399] | 25.5 |  |
| CC(=O)N[C@H]1[C@H]([C@H](O)[C@H](O)CO)OC(C(=O)O)=C[C@@H]1N=C(N)N [PCM-0095451] | -4.3 |  |
| COc1ccccc1N1CCN(CCCNc2cc(=O)n(C)c(=O)n2C)CC1 [PCM-0064976] | -0.8 |  |
| COc1cc2c(cc1OC)[C@@H](Cc1ccc(Oc3cc(C[C@@H]4c5cc(OC)c(OC)cc5CCN4C)ccc3O)cc1)N(C)CC2 [PCM-0216529] | -9.3 |  |
| S=C=Nc1cccc(NC(=S)NCCCCNC(=S)Nc2cccc(N=C=S)c2)c1 [PCM-0095477] |  | 38.9 |

| SMILES | inhibition at 10 µM [1] [%] | inhibition at 10 µM (read-out: BTK inhibition (%)) [%] |
| --- | --- | --- |
| Cn1c(=O)cc(N2CCC[C@@H](N)C2)n(Cc2cc(F)ccc2C#N)c1=O [PCM-0095818] | 15.4 |  |
| CC(C)(NS(=O)(=O)c1ccc2c(Cl)cnc(N=C(N)N)c2c1)C(=O)O [PCM-0215778] | -11.6 |  |
| Cc1ccc(S(=O)(=O)OCC(=O)Nc2ccc(C(=O)O)c(O)c2)cc1 [PCM-0094985] | 29.6 |  |
| Cc1ccc(-n2nc(C(C)(C)C)cc2NC(=O)Nc2ccc(OCCN3CCOCC3)c3ccccc23)cc1 [PCM-0095136] | 9.7 |  |
| Clc1ccccc1C(c1ccccc1)(c1ccccc1)n1ccnc1 [PCM-0064702] | -2.3 |  |
| CCCCc1ccc(O)cc1O [PCM-0216578] | -8.5 |  |
| O=c1c2ccccc2oc2ccccc12 [PCM-0091091] | -21 |  |
| COc1cc(CCC(=O)CC(=O)CCc2ccc(O)c(OC)c2)ccc1O [PCM-0216226] | -7 |  |
| CCOC(=O)/C=C/c1ccc(OC)cc1 [PCM-0216286] | -3.1 |  |
| CC(=O)OCC(=O)[C@H]1CC[C@H]2[C@@H]3CCC4=CC(=O)CC[C@]4(C)[C@H]3CC[C@]12C [PCM-0214761] | -11.7 |  |
| CCC(=O)N1CCN(c2ccc(-n3c(=O)ccc4cnc5ccc(-c6cnc7ccccc7c6)cc5c43)cc2C(F)(F)F)CC1 [PCM-0095455] | -25.5 |  |
| C/C(=C\c1csc(C)n1)[C@@H]1C[C@@H]2O[C@@H]2CCC[C@H](C)[C@H](O)[C@@H](C)C(=O)C(C)(C)[C@@H](O)CC(=O)O1 [PCM-0095086] |  | 1.6 |
| CC(C)(C)C(=O)Nc1ccc2c(c1)C(=O)C(=O)c1ccccc1-2 [PCM-0215348] | 10.8 |  |
| C=C(C)[C@@H]1CC[C@]2(C(=O)O)CC[C@]3(C)[C@H](CC[C@@H]4[C@@]5(C)CC[C@H](O)C(C)(C)[C@@H]5CC[C@]43C)[C@@H]12 [PCM-0214730] | 3.9 |  |
| Nc1nc(CC(=O)Nc2ccc(CCNC[C@H](O)c3ccccc3)cc2)cs1 [PCM-0095557] | 3.9 |  |
| CC(=O)N[C@@H](CC(=O)O)C(=O)N[C@@H](CCC(=O)O)C(=O)N[C@H](C(=O)N[C@H](C=O)CC(=O)O)C(C)C [PCM-0215827] | -7.7 |  |
| Nc1cccc2c1C(=O)N(C1CCC(=O)NC1=O)C2=O (stereo not drawn) [PCM-0095126] | 11 |  |
| COC(=O)N[C@H](C(=O)N1CCC[C@H]1c1ncc(-c2ccc3c(c2)O[C@@H](c2ccccc2)n2c-3cc3cc(-c4cnc([C@@H]5CCCN5C(=O)[C@@H](NC(=O)OC)C(C)C)[nH]4)ccc32)[nH]1)C(C)C [PCM-0216642] | 52.5 |  |
| O=C1C(c2c(O)[nH]c3ccccc23)=Nc2ccccc21 [PCM-0094833] | 11 |  |
| CC(C)OC(=O)C(C)(C)Oc1ccc(C(=O)c2ccc(Cl)cc2)cc1 [PCM-0065053] | 8.6 |  |
| COc1ccccc1OCCNCC(O)COc1cccc2[nH]c3ccccc3c12 (stereo not drawn) [PCM-0065111] | -7.8 |  |
| COc1ccc2c(O[C@@H]3C[C@H]4C(=O)N[C@]5(C(=O)NS(=O)(=O)C6CC6)C[C@H]5/C=C\CCCCN(C)C(=O)[C@@H]4C3)cc(-c3nc(C(C)C)cs3)nc2c1C [PCM-0215097] | 55.6 |  |
| COc1ccc(S(=O)(=O)Nc2cc(-c3c(O)ccc4ccccc34)c(O)c3ccccc23)cc1 [PCM-0215905] | 86.5 |  |

| SMILES | inhibition at 10 µM [1] [%] | inhibition at 10 µM (read-out: BTK inhibition (%)) [%] |
| --- | --- | --- |
| CN1C(=O)[C@@H](NC(=O)c2cc(Cc3ccccc3)on2)COc2ccccc21 [PCM-0213452] | 3.1 |  |
| CC(C)=CCC[C@@](C)(O)[C@H]1CC[C@]2(C)[C@@H]1[C@H](O)C[C@@H]1[C@@]3(C)CC[C@H](O[C@@H]4O[C@H](CO)[C@@H](O)[C@H](O)[C@H]4O[C@@H]4O[C@H](CO)[C@@H](O)[C@H](O)[C@H]4O)C(C)(C)[C@@H]3CC[C@]12C [PCM-0216609] | 21.6 |  |
| Cc1ccccc1C(=O)Nc1ccc(C(=O)N2CCCC(O)c3cc(Cl)ccc32)c(C)c1 (stereo not drawn) [PCM-0095415] | 4.7 |  |
| CC1=C[C@H](O)CC(C)(C)[C@H]1/C=C/C(C)=C/C=C/C(C)=C/C=C/C=C(C)/C=C/C=C(C)/C=C/C1=C(C)C[C@@H](O)CC1(C)C [PCM-0215916] | 0.8 |  |
| O=C(c1ccc(F)cc1)C1CCN(CCn2c(=O)[nH]c3ccccc3c2=O)CC1 [PCM-0065006] | 0 |  |
| Nc1nc(=S)c2ncn([C@H]3C[C@H](O)[C@@H](CO)O3)c2[nH]1 [PCM-0215558] | -7.7 |  |
| O=C1CCC[C@@H]2[C@H]3CCC[N@+]4([O-])CCC[C@@H](CN12)[C@@H]34 [PCM-0094874] | -8.6 |  |
| CN(C)CCc1ccc(O)cc1 [PCM-0094832] | -21.8 |  |
| CC(=O)N1CCN(c2ccc(NC(=O)Cc3cnc(-c4ccnc(F)c4)c(C)c3)nc2)CC1 [PCM-0215890] | -10.8 |  |
| Cc1cccc(Nc2ccncc2S(=O)(=O)NC(=O)NC(C)C)c1 [PCM-0086313] | -4.3 |  |
| CC[N+](CC)(CC)CCOc1cccc(OCC[N+](CC)(CC)CC)c1OCC[N+](CC)(CC)CC [PCM-0065294] | 9.3 |  |
| C=CC(=O)N1CCC[C@H](n2c(=O)n(-c3ccc(Oc4ccccc4)cc3)c3c(N)ncnc32)C1 [PCM-0215519] | 97.2 |  |
| COc1cccc2c1C(=O)c1c(O)c3c(c(O)c1C2=O)C[C@@](O)(C(=O)CO)C[C@@H]3O[C@H]1C[C@H](N)[C@@H](O)[C@H](C)O1 [PCM-0090504] | 45.1 |  |
| C[N+](C)(C)CC(O)CC(=O)O (stereo not drawn) [PCM-0090641] | -11.7 |  |
| COC(=O)c1ccc(O)cc1 [PCM-0215083] | -5.4 |  |
| CN1C[C@@H]2C[C@H]1CN2c1cc2c(cc1F)c(=O)c(C(=O)O)cn2C1CC1 [PCM-0095547] | 10.2 |  |
| Cc1cccc(C)c1NC(=O)CN1CCCC1=O [PCM-0065191] | -8.6 |  |
| COc1ccc(Oc2cc(C)c(-c3csc(NC(=O)c4ccncc4)n3)c(C)c2)cc1 [PCM-0215413] | 20.8 |  |
| N#C[C@@H]1C[C@@H]2C[C@@H]2N1C(=O)[C@@H](N)C12CC3CC(CC(O)(C3)C1)C2 [PCM-0095098] | -22.6 |  |
| CCCCc1nc(C)c(CC(=S)N(C)C)c(=O)n1Cc1ccc(-c2ccccc2-c2nn[nH]n2)cc1 [PCM-0215150] | -6.2 |  |
| O=S(=O)(c1cccc2cnccc12)N1CCCNCC1 [PCM-0090675] | -17.9 |  |
| CCC(=O)O[C@@H]1CC(=O)O[C@H](C)C/C=C/C=C/[C@H](O)[C@H](C)C[C@H](CC=O)[C@H](O[C@@H]2O[C@H](C)[C@@H](O[C@H]3C[C@@](C)(O)[C@@H](OC(=O)CC)[C@H](C)O3)[C@H](N(C)C)[C@H]2O)[C@H]1OC [PCM-0216255] | 6.2 |  |
| CC(=O)Nc1nc(C)c(-c2ccc(Cl)c(S(=O)(=O)NCCO)c2)s1 [PCM-0095173] | -10.3 |  |
